Experiments:
Flt3(D835Y)(h) = Flt3(D835Y)(h) (Homo sapiens, UniProt P36888, D835Y); assay: Protein kinase inhibition assay; type: biochemical; conditions: read-out: percent residual activity of Flt3(D835Y)(h)
Description: (§1) Certain compounds were tested for activity in protein kinase inhibition assays. All substrates were dissolved and diluted to working stocks in de-ionized water, apart from histone H1 (10× working stock in 20 mM MOPS pH 7.0), PDKtide (10× working stock in 50 mM Tris pH 7.0) ATF2 (which is typically stored at a 20× working stock in 50 mM Tris pH 7.5, 150 mM NaCl, 0.1 mM EGTA, 0.03% Brij-35, 50% glycerol, 1 mM benzamidine, 0.2 mM PMSF and 0.1% R-mercaptoethanol), KKLNRTLSFAEPG (SEQ ID NO:203) and RRRLSFAEPG (SEQ ID NO:204) (50 mM HEPES pH 7.4) and GGEEEEYFELVKKKK (SEQ ID NO:205) (20 mM MOPS pH 7.0). All kinases were pre-diluted to a 10× working concentration prior to addition into the assay. The composition of the dilution buffer for each kinase is detailed below.
In a final reaction volume of 25 μl, Flt3 (D835Y) (h) (5-10 mU) is incubated with 8 mM MOPS pH 7.0, 0.2 mM EDTA, 50 μM EAIYAAPFAKKK (SEQ ID NO:206), 10 mM MgAcetate and [gamma-33P-ATP] (specific activity approx. 500 cpm/pmol, concentration as required). The reaction is initiated by the addition of the MgATP mix. After incubation for 40 minutes at room temperature, the reaction is stopped by the addition of 5 μl of a 3% phosphoric acid solution. 10 μl of the reaction is then spotted onto a P30 filtermat and washed three times for 5 minutes in 75 mM phosphoric acid and once in methanol prior to drying and scintillation counting.

MAPKAP-K3(h) = MAPKAP-K3(h) (Homo sapiens, UniProt Q16644); assay: Protein kinase inhibition assay; type: biochemical; conditions: read-out: percent residual activity of MAPKAP-K3(h)
Description: as §1
In a final reaction volume of 25 μl, MAPKAP-K3 (h) (5-10 mU) is incubated with 50 mM Na R-glycerophosphate pH 7.5, 0.1 mM EGTA, 30 μM KKLNRTLSVA (SEQ ID NO:212), 10 mM MgAcetate and [gamma-33P-ATP] (specific activity approx. 500 cpm/pmol, concentration as required). The reaction is initiated by the addition of the MgATP mix. After incubation for 40 minutes at room temperature, the reaction is stopped by the addition of 5 μl of a 3% phosphoric acid solution. […]

PKCγ(h) = PKCγ(h) (Homo sapiens, UniProt P05129); assay: Protein kinase inhibition assay; type: biochemical; conditions: read-out: percent residual activity of PKCγ(h)
Description: as §1
(§2) In a final reaction volume of 25 μl, PKCγ (h) (5-10 mU) is incubated with 20 mM HEPES pH 7.4, 0.03% Triton X-100, 0.1 mM, 0.1 mg/ml phosphatidylserine, 10 μg/ml diacylglycerol, 0.1 mg/ml histone H1, 10 mM MgAcetate and [gamma-33P-ATP] (specific activity approx. 500 cpm/pmol, concentration as required). The reaction is initiated by the addition of the MgATP mix. After incubation for 40 minutes at room temperature, the reaction is stopped by the addition of 5 μl of a 3% phosphoric acid solution. […]

PKCη(h) = PKCη(h) (Homo sapiens, UniProt P24723); assay: Protein kinase inhibition assay; type: biochemical; conditions: read-out: percent residual activity of PKCη(h)
Description: as §1
as §2, with “PKCη” for “PKCγ”, “mM CaCl2,” for “mM,”, “50 μM ERMRPRKRQGSVRRRV (SEQ ID NO:234),” for “0.1 mg/ml histone H1,”

nucleolin/cMyc QP DNA = molecular target: T1, nucleolin/cMyc QP DNA (Homo sapiens, UniProt P19338); assay: EMSA, nucleolin/QP ligand interaction; type: binding; conditions: nucleolin ~250 nM, 32P-labeled ligand 10 or 250 nM, 30 minutes (FIG. 1, FIG. 2)
T1 construct: without the N-terminal acidic stretches domain
Description: The following assays assessed effects of compounds on interactions between nucleolin and nucleic acid ligands capable of forming quadruplex (QP) and hairpin (HP) secondary structures. Nucleic acid ligands tested were a cMyc QP DNA having nucleotide sequence 5′-[…]-3′ (SEQ ID NO: 176) and a HP pre-rRNA region to which nucleolin binds, having the sequence 5′-[…]-3′ (SEQ ID NO: 177). In the assays, recombinant nucleolin (˜250 nM), which was fused to maltose binding protein and had the sequence under accession number NM_005381 without the N-terminal acidic stretches domain, was incubated with each of the two ^32P-labeled nucleic acid ligands (10 or 250 nM). Nucleolin and the nucleic acid ligand were incubated in the presence or absence of a test compound of Formula A-1, B-1, C-6 or C-7 in an incubation buffer (12.5 mM Tris, pH 7.6, 60 mM KCl, 1 mM MgCl2, 0.1 mM EDTA, 1 mM DTT, 5% glycerol, 0.1 mg/ml BSA) for 30 minutes at room temperature. Structures for A-1 and B-1 are shown above and structures for C-6 and C-7 are shown hereafter: [drawing 17] The resulting complexes were separated on a 6% DNA retardation gel using 0.5× TBE with 20 mM KCl as a running buffer (i.e., electrophoresis mobility shift assay (EMSA)).

T1 sequence (P19338 284-710 limits assumed): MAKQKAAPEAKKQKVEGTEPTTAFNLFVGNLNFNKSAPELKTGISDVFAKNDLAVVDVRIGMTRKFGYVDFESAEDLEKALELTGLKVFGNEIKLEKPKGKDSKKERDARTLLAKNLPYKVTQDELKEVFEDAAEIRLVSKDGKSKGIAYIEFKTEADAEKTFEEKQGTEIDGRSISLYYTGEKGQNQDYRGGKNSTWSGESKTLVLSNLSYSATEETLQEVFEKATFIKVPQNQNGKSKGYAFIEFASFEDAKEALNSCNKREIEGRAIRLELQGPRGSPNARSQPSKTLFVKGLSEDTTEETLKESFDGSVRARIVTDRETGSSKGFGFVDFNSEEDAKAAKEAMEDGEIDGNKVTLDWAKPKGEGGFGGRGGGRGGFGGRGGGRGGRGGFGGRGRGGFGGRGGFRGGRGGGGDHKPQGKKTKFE
PKCη(h), sequence (P24723 whole entry): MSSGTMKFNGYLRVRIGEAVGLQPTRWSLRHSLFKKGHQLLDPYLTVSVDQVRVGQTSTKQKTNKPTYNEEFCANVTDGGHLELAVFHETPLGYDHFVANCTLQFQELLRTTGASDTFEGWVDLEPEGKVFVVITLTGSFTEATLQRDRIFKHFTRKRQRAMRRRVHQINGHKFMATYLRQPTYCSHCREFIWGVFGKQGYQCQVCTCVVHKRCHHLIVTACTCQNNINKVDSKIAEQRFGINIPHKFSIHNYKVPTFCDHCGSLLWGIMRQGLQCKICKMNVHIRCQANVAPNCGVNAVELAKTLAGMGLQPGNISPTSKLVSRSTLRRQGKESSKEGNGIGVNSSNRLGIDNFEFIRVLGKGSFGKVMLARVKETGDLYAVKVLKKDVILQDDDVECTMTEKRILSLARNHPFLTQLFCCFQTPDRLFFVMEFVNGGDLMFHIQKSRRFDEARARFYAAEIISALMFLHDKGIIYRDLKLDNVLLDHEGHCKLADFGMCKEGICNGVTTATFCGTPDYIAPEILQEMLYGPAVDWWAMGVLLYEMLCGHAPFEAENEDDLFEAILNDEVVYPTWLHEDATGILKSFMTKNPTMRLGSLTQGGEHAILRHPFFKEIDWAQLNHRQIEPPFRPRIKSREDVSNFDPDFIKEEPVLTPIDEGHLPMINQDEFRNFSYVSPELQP
MAPKAP-K3(h), sequence (Q16644 whole entry): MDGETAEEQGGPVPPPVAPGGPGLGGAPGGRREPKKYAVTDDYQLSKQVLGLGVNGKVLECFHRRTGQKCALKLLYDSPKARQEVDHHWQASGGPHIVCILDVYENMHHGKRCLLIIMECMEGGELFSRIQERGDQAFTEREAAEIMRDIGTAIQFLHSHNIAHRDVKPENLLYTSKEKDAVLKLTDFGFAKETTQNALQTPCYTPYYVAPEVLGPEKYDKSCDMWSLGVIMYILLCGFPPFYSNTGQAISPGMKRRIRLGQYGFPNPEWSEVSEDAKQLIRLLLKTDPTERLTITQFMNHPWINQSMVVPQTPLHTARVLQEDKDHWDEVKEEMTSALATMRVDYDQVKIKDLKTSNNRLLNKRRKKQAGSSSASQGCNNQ

| remaining activity at 2.5 µM (Flt3(D835Y)(h)) | remaining activity at 2.5 µM (MAPKAP-K3(h)) | remaining activity at 2.5 µM (PKCγ(h)) | remaining activity at 2.5 µM (PKCη(h)) | SMILES | interference with the nucleolin/QP ligand interaction (nucleolin/cMyc QP DNA) |
| --- | --- | --- | --- | --- | --- |
| 78% | 109% | 102% | 80% | CC(=O)N1CCN(c2ccc3c(=O)c(C(=O)NCCN4CCCC4)c4n(C)c5ccccc5n4c3n2)CC1 [Compound B-1] | interfered with the nucleolin/QP ligand interaction in a concentration dependent manner |
| 36% | 94% | 110% | 80% | CN1CCCC1CCNC(=O)c1cn2c3c(c(N4CCC(c5cnccn5)C4)c(F)cc3c1=O)Oc1cc3ccccc3cc1-2 (stereo not shown) [Compound A-1] | interfered with the nucleolin/QP ligand interaction in a concentration dependent manner |

— patent US20070117770A1, “Human ribosomal DNA (rDNA) and ribosomal RNA (rRNA) nucleic acids and uses thereof” (Cylene Pharmaceuticals, Inc., priority 2005, published 2007)
